Tests used:
CCld = target: T1, CCld (Cyanothece sp. PCC 7425, UniProt B8HNS6); experiment: UV-vis titration; type: binding; conditions: read-out: dissociation constant
T1 construct: gene Cyan7425_1434

Arg127 = Arg127 (UniProt position 127, LPGVARRLLHC); experiment: neutron; conditions: 293 K; 0.15 M MgSO4; 0.1 M glycine-NaOH pH 9.0, 0.15 M MgSO4, 30% PEG 3350, 5% glycerol; Ferric CCld crystal, hydroxide (OD-) bound to the haem iron, Arg127 in the 'out' conformation

T1 sequence (B8HNS6 entry or part of it): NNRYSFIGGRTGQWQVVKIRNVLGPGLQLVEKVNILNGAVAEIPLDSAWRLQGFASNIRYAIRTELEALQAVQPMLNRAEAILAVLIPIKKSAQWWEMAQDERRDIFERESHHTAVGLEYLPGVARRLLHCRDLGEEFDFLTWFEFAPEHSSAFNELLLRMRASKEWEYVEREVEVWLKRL

Compound | Kd (CCld) [mM] | pKa (Arg127)
F [F^–, fluoride] | 12.6 | 
N#CS [SCN^–, thiocyanate] | 0.074 | 
Chlorite dismutase (CCld) (Cyanothece sp. PCC7425) |  | >9.0 (protonated at pH 9.0)

From article PMC5678291, “Molecular Mechanism of Enzymatic Chlorite Detoxification: Insights from Structural and Kinetic Studies” (ACS Catalysis, 2017)
